From patent US20230085307A1, “PYRIDAZINONE COMPOUND AND HERBICIDE” (NISSAN CHEMICAL CORPORATION, priority 2019, published 2023)

What was measured:
[1] = system: late watergrass; assay: Test Example 1: herbicidal activity, application before weed generation under submerged conditions (Table 16, symbol A); type: in vivo, late watergrass (Echinochloa oryzicola); details: 320 g/ha applied herbicide
In short: (§1)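 Alluvial soil was flooded to 4 cm depth, weed seeds were sown mixed and 2.5-leaf rice seedlings were transplanted. On sowing day, the compound's emulsion, diluted in water to a set dose, was applied to the water surface. Plants grew at 25–30 °C and were scored 0–5 after three weeks.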

[2] = system: Japanese bulrush; assay: Test Example 1: herbicidal activity, application before weed generation under submerged conditions (Table 16, symbol B); type: in vivo, Japanese bulrush (Schoenoplectus juncoides); details: 320 g/ha applied herbicide
In short: as §1

[3] = system: oval-leafed pondweed; assay: Test Example 1: herbicidal activity, application before weed generation under submerged conditions (Table 16, symbol C); type: in vivo, oval-leafed pondweed (Monochoria vaginalis); details: 320 g/ha applied herbicide
In short: as §1

[4] = system: oval-leafed pondweed; assay: Test Example 2: herbicidal activity, application during weed generation under submerged conditions (Table 17, symbol C); type: in vivo, oval-leafed pondweed (Monochoria vaginalis); details: AAH 320 g/ha; application during weed generation, submerged conditions
In short: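 Alluvial soil in Wagner pots was flooded to 4 cm depth and sown with the three weeds together; pots were kept in a greenhouse at 25° C. to 30° C. At the one to two leaf stage, an emulsion formulation diluted in water to a set rate went onto the water surface; scored three weeks later.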

[5] = system: Chinese sprangletop; assay: Test Example 3: herbicidal effect by foliage application, Wagner pot (Table 18, symbol D); type: in vivo, chinese sprangletop (Leptochloa chinensis); details: for herbicidal effect on D (Chinese sprangletop), rating 0-5: 320 g/ha
In short: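 Plants were sown in alluvial soil held under 0.1–0.5 cm standing water and grown 14 days in a greenhouse at 25–30 °C. An emulsifiable formulation, water-diluted to the set dose, was then sprayed onto the foliage, and effects were scored three weeks later using previously defined criteria.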

[6] = system: blackgrass; assay: Test Example 4: herbicidal effect by soil treatment (Table 19, symbol J); type: in vivo, blackgrass (Alopecurus myosuroides); details: for J: blackgrass, herbicidal effect rating: amount of applied herbicide 320 g/ha
In short: (§2)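 Soil-surface application: an emulsion agent diluted with water to the predetermined dose is sprayed uniformly over seeds lying under roughly 1.5 cm of sterilized diluvial soil. Boxes stay in a greenhouse at 25° C. to 30° C. Three weeks later, each species is graded on previously defined criteria.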

[7] = system: windgrass; assay: Test Example 4: herbicidal effect by soil treatment (Table 19, symbol L); type: in vivo, windgrass (Apera spica-venti); details: for L: windgrass, herbicidal effect rating: amount of applied herbicide 320 g/ha
In short: as §2

[8] = system: persian speedwell; assay: Test Example 4: herbicidal effect by soil treatment (Table 19, symbol R); type: in vivo, Persian speedwell (Veronica persica); details: for R: persian speedwell, herbicidal effect rating: amount of applied herbicide 320 g/ha
In short: as §2

[9] = system: southern crabgrass; assay: Test Example 5: herbicidal effect by foliage application, plastic box (Table 20, symbol F); type: in vivo, southern crabgrass (Digitaria ciliaris); details: foliage application, 320 g/ha, evaluated three weeks after application
In short: (§3)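 Sow seeds spot-wise in sterilized diluvial soil; cover with ~1.5 cm soil. Grow 14 days in greenhouse, 25° C. to 30° C. Spray foliage with emulsion diluted to predetermined amount. Rate effect after 3 weeks.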

[10] = system: barnyard grass; assay: Test Example 5: herbicidal effect by foliage application, plastic box (Table 20, symbol H); type: in vivo, barnyard grass (Echinochloa crus-galli); details: foliage application, 320 g/ha, evaluated three weeks after application
In short: as §3

[11] = system: lambsquarters; assay: Test Example 5: herbicidal effect by foliage application, plastic box (Table 20, symbol O); type: in vivo, lambsquarters (Chenopodium album); details: foliage application, 320 g/ha, evaluated three weeks after application
In short: as §3

| Structure (SMILES) | Herbicidal effect on A: late watergrass (grade 0-5) [1] | Herbicidal effect on B: Japanese bulrush (grade 0-5) [2] | Herbicidal effect on C: oval-leafed pondweed (grade 0-5) [3] | herbicidal effect rating, C: oval-leafed pondweed [4] | herbicidal effect on D (Chinese sprangletop), rating 0-5 [5] | herbicidal effect rating, J: blackgrass ([6]; 320 g/ha) | herbicidal effect rating, L: windgrass ([7]; 320 g/ha) | herbicidal effect rating, R: persian speedwell ([8]; 320 g/ha) | herbicidal effect on F: southern crabgrass [9] | herbicidal effect on H: barnyard grass [10] | herbicidal effect on O: lambsquarters [11] | J: blackgrass, herbicidal effect rating [6] | L: windgrass, herbicidal effect rating [7] | R: persian speedwell, herbicidal effect rating [8] | herbicidal effect on D: Chinese sprangletop ([5]; amount of applied herbicide 320 g/ha) |
| --- | --- | --- | --- | --- | --- | --- | --- | --- | --- | --- | --- | --- | --- | --- | --- |
| CCCC(=O)Oc1c(C)nn(C)c(=O)c1-c1c(-c2ccc(OC)c(OC)c2)sc2ccc(F)cc12 [2-089] | 5 (Herbicidal rate of 90% or more (almost completely withered)) | 4 (Herbicidal rate of 70% or more and less than 90%) | 4 (Herbicidal rate of 70% or more and less than 90%) | 4 (Herbicidal rate of 70% or more and less than 90%) | 3 (Herbicidal rate of 40% or more and less than 70%) | 0 (Herbicidal rate of 5% or less (almost no effect)) | 0 (Herbicidal rate of 5% or less (almost no effect)) | 5 (Herbicidal rate of 90% or more (almost completely withered)) | 3 (Herbicidal rate of 40% or more and less than 70%) | 4 (Herbicidal rate of 70% or more and less than 90%) | 4 (Herbicidal rate of 70% or more and less than 90%) | – | – | – | – |
| CCCC(=O)Oc1c(C)nn(C)c(=O)c1-c1c(-c2ccc(Cl)cc2)sc2ccc(Cl)cc12 [2-100] | 3 (Herbicidal rate of 40% or more and less than 70%) | 3 (Herbicidal rate of 40% or more and less than 70%) | 2 (Herbicidal rate of 20% or more and less than 40%) | 0 (Herbicidal rate of 5% or less (almost no effect)) | 4 (Herbicidal rate of 70% or more and less than 90%) | – | – | – | 4 (Herbicidal rate of 70% or more and less than 90%) | 5 (Herbicidal rate of 90% or more (almost completely withered)) | 4 (Herbicidal rate of 70% or more and less than 90%) | 0 (Herbicidal rate of 5% or less (almost no effect)) | 3 (Herbicidal rate of 40% or more and less than 70%) | 1 (Herbicidal rate of 5% or more and less than 20%) | – |
| Cc1nn(C)c(=O)c(-c2c(-c3ccc(C#N)cc3)sc3ccc(Cl)cc23)c1O [2-112] | 0 (Herbicidal rate of 5% or less (almost no effect)) | 2 (Herbicidal rate of 20% or more and less than 40%) | 0 (Herbicidal rate of 5% or less (almost no effect)) | 0 (Herbicidal rate of 5% or less (almost no effect)) | – | – | – | – | 4 (Herbicidal rate of 70% or more and less than 90%) | 4 (Herbicidal rate of 70% or more and less than 90%) | 4 (Herbicidal rate of 70% or more and less than 90%) | 3 (Herbicidal rate of 40% or more and less than 70%) | 5 (Herbicidal rate of 90% or more (almost completely withered)) | 5 (Herbicidal rate of 90% or more (almost completely withered)) | 4 (Herbicidal rate of 70% or more and less than 90%) |
